{"source": "patent US20240123022A1", "about": "“A STABLE ANTI-ANGIOGENIC AND ANTI-INFLAMMATORY PHARMACEUTICAL FORMULATION AND PHARMACEUTICAL COMBINATION FOR TREATMENT AND PREVENTION OF PSORIASIS” (priority 2021, published 2024)", "key": {"VEGF secretion [1]": {"system": "VEGF secretion", "assay": "Inhibition of VEGF secretion in HUVEC cells", "type": "cell-based, human", "conditions": "1 mg/ml", "experimental": "The study was conducted to evaluate anti-angiogenic effect of IS217 in HUVEC cells. […] Bevacizumab (1 mg/mL) was taken as positive control for validation purpose."}, "HUVEC cells": {"system": "HUVEC cells", "assay": "Tube formation assay in HUVEC cells (VEGF induced)", "type": "cell-based, human", "parameters": "Tube formation assay results, Avg: scale not given here", "experimental": "HUVEC cells were used as test system to determine angiogenic effect of IS217 by assessing the inhibitory effects of test item on endothelial cells tube formation. Prior to the tube formation assay, test item of concentration ranging 0.01 μg/ml to 1000 μg/ml were used to treat endothelial cells for its cytotoxicity effect to assess suitable concentration for tube formation assay. […] The cells corresponding to positive control group were treated with bevacizumab of concentration 1000 μg/ml. The degree of angiogenesis progression was assessed based on visual pattern recognition of photomicrographs of HUVEC cells."}, "HaCaT cells": {"system": "HaCaT cells", "assay": "TUNEL assay", "type": "cell-based, human", "conditions": "48 h", "experimental": "Terminal deoxynucleotidyl transferase (TdT) dUTP Nick-End Labeling (TUNEL) assay has been designed to detect apoptotic cells that undergo extensive DNA degradation during the late stages of apoptosis. […] Cells were treated with test item (IS217 of 100 μg/ml-5000 μg/ml) and positive controls like curcumin (10 μM and 20 μM), anthralin (1 μM) and betullininc acid (10 μg/ml, 20 μg/ml, 50 μg/ml). After about 48 hours of treatment, cells were analysed for the apoptotic effect via TUNEL assay. Absorbance was measured using ELISA reader (Table 1)."}, "VEGF secretion [2]": {"system": "VEGF secretion", "assay": "cells", "conditions": "Homo sapiens, HaCaT, read-out: inhibition of VEGF"}, "[3]": {"system": "human keratinocytes (HaCaT) cells", "assay": "Cytotoxicity of methotrexate in combination with IS217, combination index method (MTT)", "type": "cell-based", "conditions": "methotrexate alone 0.01-5 μM, 72 h", "experimental": "Assessment of cytotoxicity of methotrexate in combination with IS217 on proliferation of human keratinocytes (HaCaT) cells was performed by using combination index method. HaCaT cell line is maintained by using DMEM, 10% FBS, CO2 incubator and after overnight incubation cells were replenished by using about 1% FBS and then the cells were treated with different concentrations (0.01, 0.1, 0.25, 0.5, 1, 5 μM) of methotrexate alone, IS217 (10, 50, 500, 1000, 2000, 5000 μg/ml) alone, combination of methotrexate (0.01, 0.1, 0.25, 0.5, 1, 5 μM) and IS217 (10, 50, 500, 1000, 2000, 5000 μg/ml) to achieve different combinations.\nIS217 was added to the above combinations every 24 hours (i.e., three doses) whereas methotrexate was added only once in 72 hours during the 72 hours of incubation. Then the plates were subjected for MTT assay and percentage inhibition (cytotoxicity) corresponding to each treatment was calculated."}, "[4]": {"system": "TPA induced ear inflammation model in C57BL/6 mice", "assay": "IS217 alone and in combination with methotrexate and betamethasone in TPA induced ear inflammation model", "type": "in vivo", "experimental": "The experimental procedure, doses and route of administration were same as IMQ model. Test item IS217 was administered subcutaneously either alone or in combination with standard methotrexate (MTX) and betamethasone (BD) to diseased animals."}, "IL-17 secretion": {"system": "IL-17 secretion", "assay": "IL-17 inhibition in ConA stimulated splenocytes (ELISA)", "type": "cell-based, C57BL/6 mice", "conditions": "Mus musculus, Splenocyte, read-out: inhibition of IL-17 w.r.t. control (ConA) levels", "experimental": "The study was conducted to assess anti-inflammatory potential of test item IS217 in murine splenocytes isolated from C57BL/6 mice for assessing percentage inhibition of IL-17 in splenocytes by using ELISA method. […] Curcumin was taken as positive control for in-house validation.\nFor determining inhibitory activity against IL-17 secretion level, splenocytes cells were treated with the concentration range of 10 to 5000 μg/ml along with Con A stimulation (5 μg/ml), Con A alone treated cells were used as a positive control. After incubating for about 24 hours, IL-17 levels were estimated by ELISA corresponding to non-cytotoxic concentrations at 10 to 2000 μg/ml and absorbance of samples was determined by using ELISA reader."}, "IL-23 secretion": {"system": "IL-23 secretion", "assay": "Inhibition of IL-23 secretion in monocytes THP-1 (LPS and IFN-γ, ELISA)", "type": "cell-based, human", "experimental": "The study was conducted to assess anti-inflammatory potential of test item, IS217 in human monocytic cell line (THP-1) by assessing percentage inhibition of IL-23 in monocytes by using ELISA method.\nCurcumin was taken as positive control for in-house validation. For determining inhibitory activity against IL-23 secretion, human monocytic cell line (THP-1) was treated with concentration range of 10-5000 μg/ml with LPS (1 μg/ml) and IFN-γ. LPS (1 μg/ml) and IFN-γ (100 ng/ml) alone were taken as a positive control. After about 24 hours of incubation, IL-23 levels were estimated by ELISA in supernatants corresponding to non-cytotoxic concentrations at 10 to 5000 μg/ml and absorbance of samples was determined by using ELISA reader."}}, "data": [{"compound": "Bevacizumab: positive control, commercial formulation Avastin®, anti-VEGF", "values": [{"measurement": "inhibition of VEGF", "setting": "VEGF secretion [1]", "result": 94.51, "unit": "%"}, {"measurement": "Tube formation assay results, Avg", "setting": "HUVEC cells; Bevacizumab + VEGF", "result": 0.44}, {"measurement": "Tube formation assay results, Avg", "setting": "HUVEC cells; Bevacizumab, without VEGF", "result": 0.33}, {"measurement": "inhibition of tube formation as compared to VEGF stimulation control", "setting": "HUVEC cells; HUVEC, bevacizumab 1000 μg/ml", "result": 91.1, "unit": "%"}]}, {"compound": "O=C1c2c(O)cccc2Cc2cccc(O)c21", "note": "[Anthralin, reference compound]", "values": [{"measurement": "% increase in TUNEL-Positive cell population w.r.t. control (untreated cells)", "setting": "HaCaT cells; 1 μM", "result": "−87.0", "unit": "%"}]}, {"compound": "C=C(C)[C@@H]1CC[C@]2(C(=O)O)CC[C@]3(C)[C@H](CC[C@@H]4[C@@]5(C)CC[C@H](O)C(C)(C)[C@@H]5CC[C@]43C)[C@@H]12", "note": "[BA, betullininc acid, reference compound]", "values": [{"measurement": "% increase in TUNEL-Positive cell population w.r.t. control (untreated cells)", "setting": "HaCaT cells; 10 μg/ml", "result": 21.3, "unit": "%"}, {"measurement": "% increase in TUNEL-Positive cell population w.r.t. control (untreated cells)", "setting": "HaCaT cells; 20 μg/ml", "result": 48.2, "unit": "%"}, {"measurement": "% increase in TUNEL-Positive cell population w.r.t. control (untreated cells)", "setting": "HaCaT cells; 50 μg/ml", "result": 61.6, "unit": "%"}]}, {"compound": "CC1=C(/C=C/C(C)=C/C=C/C(C)=C/C(=O)O)C(C)(C)CCC1", "note": "[retinoic acid]", "values": [{"measurement": "inhibition at 1 µM", "setting": "VEGF secretion [2]", "result": 22.8, "unit": "%"}]}, {"compound": "CN(Cc1cnc2nc(N)nc(N)c2n1)c1ccc(C(=O)N[C@@H](CCC(=O)O)C(=O)O)cc1", "note": "[methotrexate, reference compound]", "values": [{"measurement": "50% inhibition of cell proliferation (IC50)", "setting": "[3]", "result": "not achieved"}, {"measurement": "inhibitory activity against TPA induced increase in ear thickness", "setting": "[4]; MTX 0.75 mg/kg", "result": 24.95, "unit": "%"}, {"measurement": "inhibitory activity against TPA induced increase in ear thickness", "setting": "[4]; MTX 1.5 mg/kg", "result": 46.06, "unit": "%"}]}, {"compound": "COc1cc(/C=C/C(=O)CC(=O)/C=C/c2ccc(O)c(OC)c2)ccc1O", "note": "[Curcumin]", "values": [{"measurement": "% increase in TUNEL-Positive cell population w.r.t. control (untreated cells)", "setting": "HaCaT cells; 10 μM", "result": "−72.2", "unit": "%"}, {"measurement": "% increase in TUNEL-Positive cell population w.r.t. control (untreated cells)", "setting": "HaCaT cells; 20 μM", "result": "−76.1", "unit": "%"}, {"measurement": "inhibition at 1 µM", "setting": "IL-17 secretion; curcumin 1 μM", "result": 40.5, "unit": "%"}, {"measurement": "inhibition at 10 µM", "setting": "IL-17 secretion; curcumin 10 μM", "result": 42.5, "unit": "%"}, {"measurement": "inhibition at 10 µM", "setting": "IL-23 secretion; Homo sapiens, THP-1, curcumin 10 μM, read-out: inhibition of IL-23 w.r.t. control LPS and IFN-γ levels", "result": 91.6, "unit": "%"}, {"measurement": "inhibition of IL-23 w.r.t. control LPS and IFN-γ levels", "setting": "IL-23 secretion; curcumin, second concentration not given", "result": 90.6, "unit": "%"}, {"measurement": "inhibition at 1 µM", "setting": "VEGF secretion [2]", "result": 22.8, "unit": "%"}]}]}
